Source: patent US20100016274A1, “BETA-LACTAM CANNABINOID RECEPTOR MODULATORS” (priority 2006, published 2010)

Target: T1, cannabinoid receptor-1 (CB1), CB1R-containing cell membrane (Homo sapiens, UniProt P21554)
T1 construct: purchased Applied Cell Sciences Inc, Rockville, Md
Assay: biochemical
Type: binding
Settings: IC50, displacement of 3H-CP55940 (1 nM) on CB1 receptors
Description: Method A using cell membranes. A compound is dissolved in DMSO and diluted to 1 M as a stock solution. […] A CB1R-containing cell membrane (Applied Cell Sciences Inc, Rockville, Md.) is diluted with binding buffer to a protein concentration of 28 μg/ml.
The mixture is incubated for 90 min at room temperature, then filtered through Whatman glass fiber C disc filter in a vacuum manifold. The filter is washed three times each with 2.5 ml cold wash buffer (binding buffer with only 2.5 mg/ml BSA). The vacuum-dried filter is transferred to a scintillation vial, treated with 3 ml Eco-Scint, and the radioactivity is read on a Beckman LS6500 scintillation counter from which an IC50 value is calculated. The corresponding Ki values are obtained from serial dilutions according to this method, and calculated through the use of a non-linear regression program (Graphpad Inc, San Diego, Calif.).

T1 sequence (P21554 whole entry, species assumed): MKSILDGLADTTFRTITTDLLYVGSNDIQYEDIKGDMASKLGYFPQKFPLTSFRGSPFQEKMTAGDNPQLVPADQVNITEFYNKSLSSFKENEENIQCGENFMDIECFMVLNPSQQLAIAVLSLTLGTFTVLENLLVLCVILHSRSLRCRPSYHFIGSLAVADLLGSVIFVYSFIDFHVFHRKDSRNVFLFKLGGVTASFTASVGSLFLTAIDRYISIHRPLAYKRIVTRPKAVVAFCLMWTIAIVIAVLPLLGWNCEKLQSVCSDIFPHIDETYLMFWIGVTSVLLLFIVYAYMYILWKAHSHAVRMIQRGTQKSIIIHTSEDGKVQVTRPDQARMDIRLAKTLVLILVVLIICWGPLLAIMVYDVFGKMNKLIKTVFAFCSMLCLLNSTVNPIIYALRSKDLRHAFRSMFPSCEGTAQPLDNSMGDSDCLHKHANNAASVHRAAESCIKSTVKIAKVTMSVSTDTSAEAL

Molecule	IC50 [µM]
CCCN1CCN(C(=O)CC[C@@H](C(=O)NCc2cccc(C(F)(F)F)c2)N2C(=O)[C@@H](N3C(=O)OC[C@@H]3c3ccccc3)[C@H]2/C=C/c2ccccc2)CC1 [Example 35AJ]	< 10
CC(C)NC(=O)CN1CCN(C(=O)CC[C@@H](C(=O)NCc2cccc(C(F)(F)F)c2)N2C(=O)[C@@H](N3C(=O)OC[C@@H]3c3ccccc3)[C@H]2/C=C/c2ccccc2)CC1 [Example 35AK]	< 10
O=C(CC[C@@H](C(=O)N1CCN(C2CCCCC2)CC1)N1C(=O)[C@@H](N2C(=O)OC[C@@H]2c2ccccc2)[C@H]1/C=C/c1ccccc1)NCC1CCCCC1 [Example 37AA]	< 10
O=C(CC[C@@H](C(=O)N1CCN(C2CCCCC2)CC1)N1C(=O)[C@@H](N2C(=O)OC[C@@H]2c2ccccc2)[C@H]1/C=C/c1ccccc1)NCCOc1ccccc1 [Example 37AB]	< 10
O=C(CC[C@@H](C(=O)N1CCN(C2CCCCC2)CC1)N1C(=O)[C@@H](N2C(=O)OC[C@@H]2c2ccccc2)[C@H]1/C=C/c1ccccc1)NCc1ccc2c(c1)OCO2 [Example 37AC]	< 10
O=C(CC[C@@H](C(=O)N1CCN(C2CCCCC2)CC1)N1C(=O)[C@@H](N2C(=O)OC[C@@H]2c2ccccc2)[C@H]1/C=C/c1ccccc1)N1CCC(Cc2ccccc2)CC1 [Example 37AD]	< 10
O=C(CC[C@@H](C(=O)N1CCN(C2CCCCC2)CC1)N1C(=O)[C@@H](N2C(=O)OC[C@@H]2c2ccccc2)[C@H]1/C=C/c1ccccc1)Nc1cccc(C(F)(F)F)c1 [Example 37AE]	< 10
O=C(CC[C@@H](C(=O)N1CCN(C2CCCCC2)CC1)N1C(=O)[C@@H](N2C(=O)OC[C@@H]2c2ccccc2)[C@H]1/C=C/c1ccccc1)NCc1cccc(OC(F)(F)F)c1 [Example 37L]	< 10
O=C(CC[C@@H](C(=O)N1CCN(C2CCCCC2)CC1)N1C(=O)[C@@H](N2C(=O)OC[C@@H]2c2ccccc2)[C@H]1/C=C/c1ccccc1)NCc1ccc(Cl)c(Cl)c1 [Example 37M]	< 10
O=C(CC[C@@H](C(=O)N1CCN(C2CCCCC2)CC1)N1C(=O)[C@@H](N2C(=O)OC[C@@H]2c2ccccc2)[C@H]1/C=C/c1ccccc1)NCc1cc(Cl)cc(Cl)c1 [Example 37N]	< 10
O=C(CC[C@@H](C(=O)N1CCN(C2CCCCC2)CC1)N1C(=O)[C@@H](N2C(=O)OC[C@@H]2c2ccccc2)[C@H]1/C=C/c1ccccc1)NCc1cc(Cl)ccc1Cl [Example 37O]	< 10
O=C(CC[C@@H](C(=O)N1CCN(C2CCCCC2)CC1)N1C(=O)[C@@H](N2C(=O)OC[C@@H]2c2ccccc2)[C@H]1/C=C/c1ccccc1)NCc1cccc(Cl)c1Cl [Example 37P]	< 10
O=C(CC[C@@H](C(=O)N1CCN(C2CCCCC2)CC1)N1C(=O)[C@@H](N2C(=O)OC[C@@H]2c2ccccc2)[C@H]1/C=C/c1ccccc1)NCc1cc(C(F)(F)F)ccc1F [Example 37Q]	< 10
O=C(CC[C@@H](C(=O)N1CCN(C2CCCCC2)CC1)N1C(=O)[C@@H](N2C(=O)OC[C@@H]2c2ccccc2)[C@H]1/C=C/c1ccccc1)NCc1ccc(F)c(C(F)(F)F)c1 [Example 37R]	< 10
O=C(CC[C@@H](C(=O)N1CCN(C2CCCCC2)CC1)N1C(=O)[C@@H](N2C(=O)OC[C@@H]2c2ccccc2)[C@H]1/C=C/c1ccccc1)NCc1cccc(C(F)(F)F)c1F [Example 37T]	< 10
O=C(CC[C@@H](C(=O)N1CCN(C2CCCCC2)CC1)N1C(=O)[C@@H](N2C(=O)OC[C@@H]2c2ccccc2)[C@H]1/C=C/c1ccccc1)NC1CCc2ccccc21 (stereo partly drawn) [Example 37V]	< 10
O=C(CC[C@@H](C(=O)N1CCN(C2CCCCC2)CC1)N1C(=O)[C@@H](N2C(=O)OC[C@@H]2c2ccccc2)[C@H]1/C=C/c1ccccc1)N1CCC(n2c(O)nc3ccccc32)CC1 [Example 37W]	< 10
O=C(NCCc1ccccc1)[C@H](CCC(=O)N1CCN(C2CCCCC2)CC1)N1C(=O)[C@@H](N2C(=O)OC[C@@H]2c2ccccc2)[C@H]1/C=C/c1ccccc1 [Example 38AC]	< 10
COc1cc(CNC(=O)[C@H](CCC(=O)N2CCN(C3CCCCC3)CC2)N2C(=O)[C@@H](N3C(=O)OC[C@@H]3c3ccccc3)[C@H]2/C=C/c2ccccc2)cc(OC)c1 [Example 38AD]	< 10

Molecule	IC50 [µM]
COc1cccc([C@@H](C)NC(=O)[C@H](CCC(=O)N2CCN(C3CCCCC3)CC2)N2C(=O)[C@@H](N3C(=O)OC[C@@H]3c3ccccc3)[C@H]2/C=C/c2ccccc2)c1 [Example 38AE]	< 10
COc1cccc(C(C)NC(=O)C(CCC(=O)N2CCN(C3CCCCC3)CC2)N2C(=O)C(N3C(=O)OCC3c3ccccc3)C2C=Cc2ccccc2)c1 (stereo not drawn) [Example 38AF]	< 10
CC(C)(NC(=O)[C@H](CCC(=O)N1CCN(C2CCCCC2)CC1)N1C(=O)[C@@H](N2C(=O)OC[C@@H]2c2ccccc2)[C@H]1/C=C/c1ccccc1)c1ccccc1 [Example 38AG]	< 10
O=C(NCc1ccc(C(F)(F)F)cc1)[C@H](CCC(=O)N1CCN(C2CCCCC2)CC1)N1C(=O)[C@@H](N2C(=O)OC[C@@H]2c2ccccc2)[C@H]1/C=C/c1ccccc1 [Example 38BH]	< 10
O=C(NCc1cccc2ccccc12)[C@H](CCC(=O)N1CCN(C2CCCCC2)CC1)N1C(=O)[C@@H](N2C(=O)OC[C@@H]2c2ccccc2)[C@H]1/C=C/c1ccccc1 [Example 38BL]	< 10
O=C(CC[C@@H](C(=O)N1CCc2ccccc2C1)N1C(=O)[C@@H](N2C(=O)OC[C@@H]2c2ccccc2)[C@H]1/C=C/c1ccccc1)N1CCN(C2CCCCC2)CC1 [Example 38BM]	< 10
O=C(NCc1ccccc1C(F)(F)F)[C@H](CCC(=O)N1CCN(C2CCCCC2)CC1)N1C(=O)[C@@H](N2C(=O)OC[C@@H]2c2ccccc2)[C@H]1/C=C/c1ccccc1 [Example 38K]	~10
COc1cccc(CNC(=O)[C@H](CCC(=O)N2CCN(C3CCCCC3)CC2)N2C(=O)[C@@H](N3C(=O)OC[C@@H]3c3ccccc3)[C@H]2/C=C/c2ccccc2)c1 [Example 38L]	~10
O=C(NCc1cccc(F)c1)[C@H](CCC(=O)N1CCN(C2CCCCC2)CC1)N1C(=O)[C@@H](N2C(=O)OC[C@@H]2c2ccccc2)[C@H]1/C=C/c1ccccc1 [Example 38M]	~10
O=C(NCc1cc(F)cc(F)c1)[C@H](CCC(=O)N1CCN(C2CCCCC2)CC1)N1C(=O)[C@@H](N2C(=O)OC[C@@H]2c2ccccc2)[C@H]1/C=C/c1ccccc1 [Example 38N]	~10
O=C(NCc1ccc(F)c(Cl)c1)[C@H](CCC(=O)N1CCN(C2CCCCC2)CC1)N1C(=O)[C@@H](N2C(=O)OC[C@@H]2c2ccccc2)[C@H]1/C=C/c1ccccc1 [Example 38O]	< 10
Cc1cccc(CNC(=O)[C@H](CCC(=O)N2CCN(C3CCCCC3)CC2)N2C(=O)[C@@H](N3C(=O)OC[C@@H]3c3ccccc3)[C@H]2/C=C/c2ccccc2)c1 [Example 38V]	< 10
O=C(C[C@@H](C(=O)NCc1cccc(C(F)(F)F)c1)N1C(=O)[C@@H](N2C(=O)OC[C@@H]2c2ccccc2)[C@H]1CCc1ccccc1)NC1CCN(Cc2ccccc2)CC1 [Example 53A, 2(S)-[[(1-Benzylpiperidin-4-yl)amino]carbonylmethyl]-2-[3 (S)-(4(S)-phenyloxazolidin-2-on-3-yl)-4(R)-(2-phenyleth-1-yl)azetidin-2-on-1-yl]acetic acid N-(3-trifluoromethylbenzyl)amide]	< 10
O=C(CN1C(=O)C(c2ccccc2)C1C=Cc1ccccc1)OCc1ccccc1 (stereo not drawn) [Example 70A, Benzyl 2-[3(S*)-2-Phenyl)-4(R*)-(2-styryl)azetidin-2-on-1-yl]acetate]	< 10
O=C(NC1CCCc2ccccc21)[C@H](CCC(=O)N1CCN(C2CCCCC2)CC1)N1C(=O)[C@@H](N2C(=O)OC[C@@H]2c2ccccc2)[C@H]1/C=C/c1cccs1 (stereo partly drawn) [Example 72C]	~10
O=C(N[C@@H]1CCCc2ccccc21)[C@H](CCC(=O)N1CCN(C2CCCCCC2)CC1)N1C(=O)[C@@H](N2C(=O)OC[C@@H]2c2ccccc2)[C@H]1/C=C/c1ccccc1 [Example 73A]	< 10
O=C(NCc1cccc(C(F)(F)F)c1)[C@H](CCC(=O)N1CCN(C2CCCCC2)CC1)N1C(=O)[C@H](N2C(=O)OC[C@@H]2c2ccccc2)[C@@H]1/C=C/c1ccccc1 [Example 73C]	~10
O=C(CC[C@@H](C(=O)N1CCN(CCC2CCCCC2)CC1)N1C(=O)[C@@H](N2C(=O)OC[C@@H]2c2ccccc2)[C@H]1/C=C/c1ccccc1)NCc1cc(F)cc(C(F)(F)F)c1 [Example 73E]	< 10

Same assay, conditions: displacement of 3H-CP55940 (1 nM) on CB1 receptors; read-out: IC50

IC50 [µM]	Molecule
~10	O=C(NC1CCCc2ccccc21)[C@H](CCC(=O)N1CCN(C2CCCCC2)CC1)N1C(=O)[C@@H](N2C(=O)OC[C@@H]2c2ccccc2)[C@H]1/C=C/c1cccc2ccsc12 (stereo partly drawn) [Example 72A]
~10	O=C(N[C@@H]1CCCc2ccccc21)[C@H](CCC(=O)N1CCN(C2CCSCC2)CC1)N1C(=O)[C@@H](N2C(=O)OC[C@@H]2c2ccccc2)[C@H]1/C=C/c1ccccc1 [Example 73B]
~10	O=C(CC[C@@H](C(=O)N1CCN(c2ccccc2)CC1)N1C(=O)[C@@H](N2C(=O)OC[C@@H]2c2ccccc2)[C@H]1/C=C/c1ccccc1)NCc1cc(F)cc(C(F)(F)F)c1 [Example 73D]
~10	O=C(CC[C@@H](C(=O)N1CCN(c2ccccn2)CC1)N1C(=O)[C@@H](N2C(=O)OC[C@@H]2c2ccccc2)[C@H]1/C=C/c1ccccc1)NCc1cc(F)cc(C(F)(F)F)c1 [Example 73F]

Molecule	IC50 [µM]
2(S)-(tert-Butoxycarbonylaminopropyl)-2-[3(S)-(4(S)-phenyloxazolidin-2-on-3-yl)-4(R)-(styr-2-yl)azetidin-2-on-1-yl]acetic acid N-(3-trifluoromethylbenzyl)amide [Example 20Q]	< 10
